Experimental data published in patent publication US8735360B2 (priority 2009, dated 2014).
Positions of bridges follow the written chain, without caps; N, C: chain ends. Residues, ends and D or L forms follow the SMILES beside them.

Legend:
[1] = oral administration at therapeutic dose levels; cited from earlier work
GC-C [2] = target: T1, GC-C (Homo sapiens, UniProt P25092); assay type: binding
GC-C [3] = target: T1, GC-C; assay type: cell-based; conditions: cGMP response in T84 cells
[4] = test system: ligated duodenal loops in rats; assay type: in vivo, rat; conditions: 2.5 μg of peptide per loop
female CD-1 mice = assay type: in vivo; conditions: oral gavage, % distance travelled by charcoal front in small intestine

T1 sequence (P25092 24-1073 limits assumed): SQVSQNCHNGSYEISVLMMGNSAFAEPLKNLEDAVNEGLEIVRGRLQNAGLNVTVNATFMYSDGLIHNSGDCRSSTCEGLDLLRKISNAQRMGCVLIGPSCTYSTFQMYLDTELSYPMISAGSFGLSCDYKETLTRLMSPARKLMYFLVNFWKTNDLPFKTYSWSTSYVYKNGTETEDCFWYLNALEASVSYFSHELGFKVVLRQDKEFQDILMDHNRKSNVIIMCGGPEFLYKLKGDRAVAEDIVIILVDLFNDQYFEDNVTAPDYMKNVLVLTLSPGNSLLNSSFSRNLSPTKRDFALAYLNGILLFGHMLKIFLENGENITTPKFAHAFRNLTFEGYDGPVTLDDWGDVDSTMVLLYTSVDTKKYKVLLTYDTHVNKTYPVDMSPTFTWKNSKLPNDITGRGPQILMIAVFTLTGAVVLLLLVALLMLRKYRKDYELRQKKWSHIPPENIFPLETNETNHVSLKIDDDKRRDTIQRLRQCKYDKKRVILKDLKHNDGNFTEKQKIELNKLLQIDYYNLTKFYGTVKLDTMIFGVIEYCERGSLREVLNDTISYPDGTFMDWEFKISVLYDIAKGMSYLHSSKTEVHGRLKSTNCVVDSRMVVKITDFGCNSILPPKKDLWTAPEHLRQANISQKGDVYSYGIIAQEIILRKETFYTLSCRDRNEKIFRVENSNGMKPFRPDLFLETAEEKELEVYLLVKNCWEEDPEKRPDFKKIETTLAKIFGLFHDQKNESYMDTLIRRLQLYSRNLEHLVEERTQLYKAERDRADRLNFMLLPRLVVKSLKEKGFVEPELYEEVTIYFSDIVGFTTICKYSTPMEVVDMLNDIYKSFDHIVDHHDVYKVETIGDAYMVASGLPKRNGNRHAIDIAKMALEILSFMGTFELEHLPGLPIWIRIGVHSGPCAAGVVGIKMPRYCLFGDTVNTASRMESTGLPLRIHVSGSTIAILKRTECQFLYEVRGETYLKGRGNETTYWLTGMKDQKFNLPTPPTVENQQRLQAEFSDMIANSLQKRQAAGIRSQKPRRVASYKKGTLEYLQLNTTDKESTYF

| SMILES | Levels seen systemically after oral administration [1] | Ratio Ki pH 8/Ki pH 5 (GC-C [2]) | Ratio EC50 pH 8/EC50 pH 5 (GC-C [3]) | Rate of fluid accumulation [4] | ED50 in the gastrointestinal transit assay (female CD-1 mice) |
| --- | --- | --- | --- | --- | --- |
| C[C@@H]1NC(=O)[C@@H]2CCCN2C(=O)[C@H](CC(N)=O)NC(=O)[C@@H]2CSSC[C@H](N)C(=O)N[C@H]3CSSC[C@H](NC1=O)C(=O)N[C@@H]([C@@H](C)O)C(=O)NCC(=O)N[C@H](C(=O)N[C@@H](Cc1ccc(O)cc1)C(=O)O)CSSC[C@H](NC(=O)[C@H](Cc1ccc(O)cc1)NC(=O)[C@H](CCC(=O)O)NC3=O)C(=O)N2 [linaclotide, Linaclotide] (H-CCEYCCNPACTGCY-OH; disulfide 1-6, 2-10, 5-13) | no detectable levels |  |  |  |  |
| CC(C)C[C@@H]1NC(=O)[C@H](CCC(=O)O)NC(=O)[C@@H]2CSSC[C@@H]3NC(=O)[C@H](C)NC(=O)[C@@H]4CCCN4C(=O)[C@H](CC(N)=O)NC(=O)[C@H](CSSC[C@H](NC(=O)[C@H](CC(=O)O)NC(=O)[C@H](CC(=O)O)NC(=O)[C@@H](N)CC(=O)O)C(=O)N2)NC(=O)[C@H](CSSC[C@@H](C(=O)N[C@@H](Cc2ccc(O)cc2)C(=O)O)NC(=O)CNC(=O)[C@H]([C@@H](C)O)NC3=O)NC1=O [Peptide 17, DDDCCELCCNPACTGCY] |  | 6.35 | 386.2 | 1.8 µL/min/cm | 2.9 µg/kg |
